Reference: patent US20240239788A1, “SMALL MOLECULE INHIBITORS OF KRAS G12D MUTANT” (Merck Sharp & Dohme LLC, priority 2021, published 2024)
Where a name gives a salt, the structure may show the parent alone. Read-outs that look alike come from different tables or passages of the source.

Columns and labels:
[1] = target: KRAS protein containing G12D mutation (Homo sapiens (Human), UniProt P01116, G12D); experiment: SOS-catalyzed nucleotide exchange assay (GNE), TR-FRET; format: biochemical; settings: biotinylated KRAS G12D, SOS and GTP, 60-minute incubation
Method: Compounds are added to this complex and then after a 60-minute incubation time the mixture is treated with SOS and unlabeled GTP. Small molecule inhibitors stabilize the Bodipy-GDP complex whereas the untreated protein rapidly exchanges Bodipy-GDP for unlabeled GTP resulting in reduced TR-FRET signal.
This solution is referred to as biotinylated KRAS G12D stock solution.

[2] = tested on: AsPC-1 cells containing homozygous KRAS-G12D activating mutation; experiment: Cellular phospho-ERK assay with 10% FBS (Examples 107a-256); format: cell-based
Method: 5% CO2 for 2 hours. […] Assay plates were read on a EnVision Multimode Plate Reader (PerkinElmer) and the ratio of p-Erk vs total Erk in each well was used as the final readout.

[3] = read-out: IC50 (nM) pERK (cell with FBS 10%), AsPC-1 cells, 10% fetal bovine serum, 2 hours, ratio of p-Erk vs total Erk
[4] = Homo sapiens, ASPC1, 2 h, read-out: IC50 (nM) pERK (cell with FBS 10%), AsPC-1 cells, 10% fetal bovine serum, 2 hours, ratio of p-Erk vs total Erk
[5] = read-out: IC50 (nM) pERK (cell with FBS 10%), AsPC-1 cells, 10% fetal bovine serum, 2 hours, ratio of p-Erk vs total Erk, TFA

Sequence of KRAS protein containing G12D mutation (P01116 other isoform, or with tags, fused parts or gaps G12D (already in the parent)): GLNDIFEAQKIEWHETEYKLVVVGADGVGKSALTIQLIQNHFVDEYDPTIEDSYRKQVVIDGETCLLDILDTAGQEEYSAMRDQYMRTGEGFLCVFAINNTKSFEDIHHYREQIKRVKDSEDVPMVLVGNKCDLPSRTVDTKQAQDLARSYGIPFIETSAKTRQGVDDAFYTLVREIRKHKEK

| SMILES | IC50 [1] | IC50 [2, 3] | IC50 [2, 4] | IC50 [2, 5] |
| --- | --- | --- | --- | --- |
| CO[C@@H]1CCN(C[C@@]2(COc3nc(N4CC5CC[C@@](C)(C4)N5)c4cc(F)c(-c5cc(O)cc6cccc(Cl)c56)c(F)c4n3)CC2(F)F)C1 (single isomer, unassigned) [Ex. 215b] | 429 nM | 2370 nM | – | – |
| C[C@]12CCC(CN(c3nc(OC[C@]4(CN[C@H]5C[C@@H](O)C5)CC4(F)F)nc4c(F)c(-c5cc(O)cc6cccc(Cl)c56)c(F)cc34)C1)N2 (single isomer, unassigned) [Ex. 216a] | 6.65 nM | 3090 nM | – | – |
| C[C@]12CCC(CN(c3nc(OC[C@]4(CN[C@H]5C[C@@H](O)C5)CC4(F)F)nc4c(F)c(-c5cc(O)cc6cccc(Cl)c56)c(F)cc34)C1)N2 (single isomer, unassigned) [Ex. 216b] | 804 nM | 7120 nM | – | – |
| C[C@]12CCC(CN(c3nc(OC[C@]4(CN[C@@H]5CC[C@H](O)C5)CC4(F)F)nc4c(F)c(-c5cc(O)cc6cccc(Cl)c56)c(F)cc34)C1)N2 (single isomer, unassigned) [Ex. 219a] | 3.27 nM | 1250 nM | – | – |
| C[C@]12CCC(CN(c3nc(OC[C@]4(CN[C@@H]5CC[C@H](O)C5)CC4(F)F)nc4c(F)c(-c5cc(O)cc6cccc(Cl)c56)c(F)cc34)C1)N2 (single isomer, unassigned) [Ex. 219b] | 627 nM | 9380 nM | – | – |
| CN(C[C@@]1(COc2nc(N3CC4CC[C@@](C)(C3)N4)c3cc(F)c(-c4cc(O)cc5cccc(Cl)c45)c(F)c3n2)CC1(F)F)C1COC1 (single isomer, unassigned) [Ex. 220] | 470 nM | – | 7830 nM | – |
| COCCOCC1CCN(C[C@@]2(COc3nc(N4CC5CC[C@@](C)(C4)N5)c4cc(F)c(-c5c(C(F)(F)F)c(C)cc6[nH]ncc56)c(F)c4n3)CC2(F)F)C1 (single isomer, unassigned) [Ex. 222] | 8.84 nM | – | 2880 nM | – |
| Cc1cc2[nH]nc(C#N)c2c(-c2c(F)cc3c(N4C[C@H]5CC[C@@H](C4)N5)nc(OC[C@@]45CCCN4C[C@H](F)C5)nc3c2F)c1C(F)(F)F (single isomer, unassigned) [Ex. 227a] | 190 nM | 1520 nM | – | – |
| C[C@]12CCC(CN(c3nc(OC[C@@]45CCCN4C[C@H](F)C5)nc4c(F)c(-c5cc(O)cn6ncc(Cl)c56)c(F)cc34)C1)N2 (single isomer, unassigned) [Ex. 230a, TFA] | 30.9 nM | – | – | 1450 nM |
| C[C@]12CCC(CN(c3nc(OC[C@@]45CCCN4C[C@H](F)C5)nc4c(F)c(-c5cc(O)cn6ncc(Cl)c56)c(F)cc34)C1)N2 (single isomer, unassigned) [Ex. 230b, TFA] | 162 nM | – | – | 9100 nM |
| Nc1cc(-c2c(F)cc3c(N4CC5CCC(C4)N5)nc(OC[C@@]45CCCN4C[C@H](F)C5)nc3c2F)c2c(Cl)cccc2n1 (single isomer, unassigned) [Ex. 231a] | 1490 nM | 9300 nM | – | – |
| Nc1cc(-c2c(F)cc3c(N4CC5CCC(C4)N5)nc(OC[C@@]45CCCN4C[C@H](F)C5)nc3c2F)c2c(Cl)cccc2n1 (single isomer, unassigned) [Ex. 231b] | 38.4 nM | 326 nM | – | – |
| Cc1cc2[nH]nc(C)c2c(-c2c(F)cc3c(N4CC5CCC(C4)N5)nc(OC[C@@]45CCCN4C[C@H](F)C5)nc3c2F)c1OC(F)(F)F (single isomer, unassigned) [Ex. 232a] | 932 nM | 30000 nM | – | – |
| Cc1cc2[nH]nc(C)c2c(-c2c(F)cc3c(N4CC5CCC(C4)N5)nc(OC[C@@]45CCCN4C[C@H](F)C5)nc3c2F)c1OC(F)(F)F (single isomer, unassigned) [Ex. 232b] | 5.9 nM | 155 nM | – | – |
| Oc1cc(Cl)c(C(F)(F)F)cc1-c1c(F)cc2c(N3CC4CCC(C3)N4)nc(OC[C@@]34CCCN3C[C@H](F)C4)nc2c1F (single isomer, unassigned) [Ex. 256] | 246 nM | – | 5870 nM | – |
| C[C@]12CC[C@H](CN(c3nc(OCC45CCCN4CCC(F)(F)C5)nc4c(F)c(-c5cc(O)cc6cccc(Cl)c56)c(F)cc34)C1)N2 (single isomer, unassigned) [Example 116b] | 473 nM | – | 14000 nM | – |
| Cc1cc2[nH]ncc2c(-c2c(F)cc3c(N4CC5CCC(C4)N5)nc(OC[C@@]45CCCN4C[C@H](F)C5)nc3c2F)c1OC(F)(F)Cl (single isomer, unassigned) [compound 253] | 1.74 nM | – | 111 nM | – |
| C[C@]12CCC(CN(c3nc(OCC45CCCN4CC(F)C5)nc4c(F)c(-c5nc(N)cc6cccc(Cl)c56)c(F)cc34)C1)N2 (stereo in doubt) [Ex. 131, 8-chloro-1-(6,8-difluoro-2-(((2S,7aR)-2-fluorotetrahydro-1H-pyrrolizin-7a(5H)-yl)methoxy)-4-((1S,5R)-1-methyl-3,8-diaza-bicyclo[3.2.1]octan-3-yl)quinazolin-7-yl) isoquinolin-3-amine] | 188 nM | – | 6980 nM | – |
| CN(C)C[C@@]1(COc2nc(N3C[C@H]4CC[C@@](C)(C3)N4)c3cc(C#N)c(-c4cc(O)cc5ccccc45)c(F)c3n2)CC1(F)F [136b, 2-(((R)-1-((dimethylamino)methyl)-2,2-difluorocyclopropyl)methoxy)-8-fluoro-7-(3-hydroxynaphthalen-1-yl)-4-((1S,5R)-1-methyl-3,8-diazabicyclo[3.2.]octan-3-yl)quinazoline-6-carbonitrile] | 32.4 nM | 2380 nM | – | – |
| C#Cc1cccc2c(F)c(O)cc(-c3c(F)cc4c(N5C[C@H]6CC[C@@](C)(C5)N6)nc(OC[C@@]56CCCN5C[C@H](F)C6)nc4c3F)c12 [202a, 4-(6,8-difluoro-2-(((2R,7aS)-2-fluorotetrahydro-1H-pyrrolizin-7a(5H)-yl)methoxy)-4-((1.5R)-1-methyl-3,8-diazabicyclo[3.2.1]octan-3-yl)quinazolin-7-yl)-5-ethynyl-1-fluoronaphthalen-2-ol] | 302 nM | 11500 nM | – | – |
| C#Cc1cccc2c(F)c(O)cc(-c3c(F)cc4c(N5C[C@H]6CC[C@@](C)(C5)N6)nc(OC[C@@]56CCCN5C[C@H](F)C6)nc4c3F)c12 [202b, 4-(6,8-difluoro-2-(((2R,7aS)-2-fluorotetrahydro-1H-pyrrolizin-7a(5H)-yl)methoxy)-4-((1S,5R)-1-methyl-3,8-diazabicyclo[3.2.1]octan-3-yl)quinazolin-7-yl)-5-ethynyl-1-fluoronaphthalen-2-ol] | 3.94 nM | – | 302 nM | – |
| C[C@]12CCC(CN(c3nc(OC[C@H]4CC[C@@]5(CO)CCCN45)nc4c(F)c(-c5cc(O)cc6cccc(Cl)c56)c(F)cc34)C1)N2 [243a, 5-chloro-4-(6,8-difluoro-2-(((38,7aS)-7a-(hydroxymethyl)hexahydro-1H-pyrrolizin-3-yl)methoxy)-4-((1S,5R)-1-methyl-3,8-diazabicyclo[3.2.1]octan-3-yl)quinazolin-7-yl)naphthalen-2-ol] | 346 nM | – | 30000 nM | – |
| CN(C)CC1(COc2nc(N3C[C@H]4CC[C@@](C)(C3)N4)c3cc(F)c(-c4cc(O)cc5ccccc45)c(F)c3n2)CC1C(=O)O (stereo partly drawn) [Ex. 107, 2-(((6,8-difluoro-7-(3-hydroxynaphthalen-1-yl)-4-((1S,5R)-1-methyl-3,8-diazabicyclo[3.2.1]octan-3-yl)quinazolin-2-yl)oxy)methyl)-2-((dimethylamino)methyl)cyclopropane-1-carboxylc acid] | 25.4 nM | 30000 nM | – | – |
| Cc1cc2[nH]nc(C)c2c(-c2c(F)cc3c(N4C[C@H]5CC[C@@H](C4)N5)nc(OCC4(CN5CCOCC5)CC4)nc3c2F)c1OC(F)F [Ex. 127, 4-((1-(((4-((1R,5S)-3,8-diazabicyclo[3.2.1]octan-3-yl)-7-(5-(difluoromethoxy)-3,6-dimethyl-1H-indazol-4-yl)-6,8-difluoroquinazolin-2-yl)oxy)methyl)cyclopropyl)methyl) morpholine] | 39 nM | – | 3600 nM | – |
| Nc1cc2cccc(Cl)c2c(-c2c(F)cc3c(N4C[C@H]5CC[C@@H](C4)N5)nc(OC[C@@]45CCCN4C[C@H](F)C5)nc3c2F)n1 [Ex. 132, 1-(4-((1R,5S)-3,8-diazabicyclo[3.2.1]octan-3-yl)-6,8-difluoro-2-(((2R,7aS)-2-fluorotetrahydro-1H-pyrrolizin-7a(5H)-yl)methoxy)quinazolin-7-yl)-8-chloroisoquinolin-3-amine] | 347 nM | – | 5580 nM | – |
| Nc1cnc(C(F)(F)F)c(-c2c(F)cc3c(N4C[C@H]5CC[C@@H](C4)N5)nc(OC[C@@]45CCCN4C[C@H](F)C5)nc3c2F)n1 [Ex. 134, 6-(4-((1R,5S)-3,8-diazabicyclo[3.2.1]octan-3-yl)-6,8-difluoro-2-(((2R,7aS)-2-fluorotetrahydro-1H-pyrrolizin-7a(5H)-yl)methoxy)quinazolin-7-yl)-5-(trifluoromethyl)pyrazin-2-amine] | 870 nM | – | 13600 nM | – |
| Cc1nc(N)nc(-c2c(F)cc3c(N4C[C@H]5CC[C@@H](C4)N5)nc(OC[C@@]45CCCN4C[C@H](F)C5)nc3c2F)c1C(F)(F)F [Ex. 135, 4-(4-((1R,5S)-3,8-diazabicyclo[3.2.1]octan-3-yl)-6,8-difluoro-2-(((2R,7aS)-2-fluorotetrahydro-1H-pyrrolizin-7a(5H)-yl)methoxy)quinazolin-7-yl)-6-methyl-5-(trifluoromethyl)pyrimidin-2-amine] | 54.6 nM | – | 469 nM | – |
